These results are taken from patent US6881741B2 (ViroChem Pharma Inc., priority 2001, dated 2005).

The target in the test is recombinant HCV NS5B (HCV RNA-dependent RNA polymerase) (Hepatitis C virus genotype 1b, UniProt P26663). The experiment in a line: biochemical. The conditions noted are these: related polymerase activity (Example 27 list); read-out: IC50.
Chain of recombinant HCV NS5B (HCV RNA-dependent RNA polymerase) (P26663 2420-3010 limits assumed): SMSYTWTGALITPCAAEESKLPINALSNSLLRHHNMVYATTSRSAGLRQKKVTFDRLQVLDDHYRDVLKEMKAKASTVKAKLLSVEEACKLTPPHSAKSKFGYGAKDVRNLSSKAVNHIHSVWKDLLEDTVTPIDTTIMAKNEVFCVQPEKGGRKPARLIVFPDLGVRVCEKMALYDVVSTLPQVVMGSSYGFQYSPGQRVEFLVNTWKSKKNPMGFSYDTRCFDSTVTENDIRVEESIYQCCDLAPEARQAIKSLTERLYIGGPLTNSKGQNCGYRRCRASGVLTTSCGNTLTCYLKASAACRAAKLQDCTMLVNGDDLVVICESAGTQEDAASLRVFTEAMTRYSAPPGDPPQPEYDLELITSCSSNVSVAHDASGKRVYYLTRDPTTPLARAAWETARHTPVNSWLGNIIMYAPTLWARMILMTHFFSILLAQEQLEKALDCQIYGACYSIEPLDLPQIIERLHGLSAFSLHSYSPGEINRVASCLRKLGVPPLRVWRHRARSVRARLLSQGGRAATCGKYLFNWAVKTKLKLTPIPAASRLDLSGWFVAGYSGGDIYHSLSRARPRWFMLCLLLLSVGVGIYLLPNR

As to `O=C(O)c1sc(-c2ccccc2)cc1NS(=O)(=O)c1cccc(Br)c1` [Compound 42, 3-(3-BROMO-BENZENESULFONYLAMINO)-5-PHENYL-THIOPHENE-2-CARBOXYLIC ACID], the half-maximal inhibitory concentration (IC50) was 5 to 20 µM.
For `CC(C)c1ccc(S(=O)(=O)Nc2cc(-c3ccccc3)sc2C(=O)O)cc1` [Compound 43, 3-(4-ISOPROPYL-BENZENESULFONYLAMINO)-5-PHENYL-THIOPHENE-2-CARBOXYLIC ACID] the value was 5 to 20 µM; for `O=C(O)c1sc(-c2ccccc2)cc1NS(=O)(=O)c1c(Cl)cccc1Cl` [Compound 44, 3-(2,6-DICHLORO-BENZENESULFONYLAMINO)-5-PHENYL-THIOPHENE-2-CARBOXYLIC ACID], below 5 µM; for `O=C(O)c1sc(-c2ccccc2)cc1NS(=O)(=O)c1ccccc1[N+](=O)[O-]` [Compound 45, 3-(2-NITRO-BENZENESULFONYLAMINO)-5-PHENYL-THIOPHENE-2-CARBOXYLIC ACID], below 5 µM.
For `O=C(O)c1sc(-c2ccccc2)cc1NS(=O)(=O)c1ccc(-c2csnn2)s1` [Compound 46, 5-PHENYL-3-(5-[1,2,3]THIADIAZOL-4-YL-THIOPHENE-2-SULFONYLAMINO)-THIOPHENE-2-CARBOXYLIC ACID] the value was 5 to 20 µM; for `O=C(O)c1sc(-c2ccccc2)cc1NS(=O)(=O)c1ccccn1` [Compound 47, 5-PHENYL-3-(PYRIDINE-2-SULFONYLAMINO)-THIOPHENE-2-CARBOXYLIC ACID], above 20 µM.
For `O=C(O)c1sc(-c2ccccc2)cc1NCc1ccc(Cl)cc1Cl` [Compound 48, 3-(2,4-DICHLORO-BENZYLAMINO)-5-PHENYL-THIOPHENE-2-CARBOXYLIC ACID] the value was below 5 µM; for `O=C(O)c1sc(-c2ccccc2)cc1NS(=O)(=O)c1cccc(F)c1` [Compound 49, 3-(3-FLUORO-BENZENESULFONYLAMINO)-5-PHENYL-THIOPHENE-2-CARBOXYLIC ACID], below 5 µM.
Take `O=C(O)c1sc(-c2ccccc2)cc1NS(=O)(=O)c1cccc(C(F)(F)F)c1` [Compound 50, 5-PHENYL-3-(3-TRIFLUOROMETHYL-BENZENESULFONYLAMINO)-THIOPHENE-2-CARBOXYLIC ACID]: the IC50 lay in the range of 5 to 20 µM.
To `COC(=O)c1sc(-c2ccccc2)cc1NC(=O)c1ccccc1C(=O)O` [Compound 51, 3-(2-CARBOXY-BENZOYLAMINO)-5-PHENYL-THIOPHENE-2-CARBOXYLIC ACID METHYL ESTER] belongs 5 to 20 µM; to `O=C(O)c1sc(-c2ccccc2)cc1NS(=O)(=O)c1ccc(C(F)(F)F)cc1` [Compound 52, 5-PHENYL-3-(4-TRIFLUOROMETHYL-BENZENESULFONYLAMINO)-THIOPHENE-2-CARBOXYLIC ACID], below 5 µM; to `O=C(O)c1sc(-c2ccccc2)cc1NS(=O)(=O)c1cc(F)ccc1F` [Compound 53, 3-(2,5-DIFLUORO-BENZENESULFONYLAMINO)-5-PHENYL-THIOPHENE-2-CARBOXYLIC ACID], below 5 µM.
Turning to `N#Cc1ccccc1S(=O)(=O)Nc1cc(-c2ccccc2)sc1C(=O)O` [Compound 54, 3-(2-CYANO-BENZENESULFONYLAMINO)-5-PHENYL-THIOPHENE-2-CARBOXYLIC ACID], the IC50 is below 5 µM.
For `O=C(O)c1sc(-c2ccccc2)cc1NS(=O)(=O)c1cc(Cl)sc1Cl` [Compound 55, 3-(2,5-DICHLORO-THIOPHENE-3-SULFONYLAMINO)-5-PHENYL-THIOPHENE-2-CARBOXYLIC ACID] the value was 5 to 20 µM.
For `Cc1ccccc1S(=O)(=O)Nc1cc(-c2cccs2)sc1C(=O)O` [Compound 56, 4-(TOLUENE-2-SULFONYLAMINO)-[2,2′]BITHIOPHENYL-5-CARBOXYLIC ACID] the value was below 5 µM; for `Cc1ccccc1S(=O)(=O)Nc1cc(-c2ccc(Cl)s2)sc1C(=O)O` [Compound 57, 5′-CHLORO-4-(TOLUENE-2-SULFONYLAMINO)-[2,2′]BITHIOPHENYL-5-CARBOXYLIC ACID], below 5 µM.
In the case of `Cc1ccccc1S(=O)(=O)Nc1cc(-c2ccc(Cl)cc2Cl)sc1C(=O)O` [Compound 58, 5-(2,4-DICHLORO-PHENYL)-3-(TOLUENE-2-SULFONYLAMINO)-THIOPHENE-2-CARBOXYLIC ACID], the IC50 fell in the range of 5 to 20 µM.
On to `Cc1ccccc1S(=O)(=O)Nc1cc(-c2ccc([N+](=O)[O-])cc2)sc1C(=O)O` [Compound 59, 5-(4-NITRO-PHENYL)-3-(TOLUENE-2-SULFONYLAMINO)-THIOPHENE-2-CARBOXYLIC ACID], for which the IC50 was below 5 µM.
As for `Cc1ccccc1S(=O)(=O)Nc1cc(-c2ccc(OC(F)(F)F)cc2)sc1C(=O)O` [Compound 60, 3-(TOLUENE-2-SULFONYLAMINO)-5-(4-TRIFLUOROMETHOXY-PHENYL)-THIOPHENE-2-CARBOXYLIC ACID], the IC50 was below 5 µM.
To `Cc1ccccc1S(=O)(=O)Nc1cc(-c2cccc3cccnc23)sc1C(=O)O` [Compound 61, 5-QUINOLIN-8-YL-3-(TOLUENE-2-SULFONYLAMINO)-THIOPHENE-2-CARBOXYLIC ACID] belongs above 20 µM; to `Cc1ccccc1S(=O)(=O)Nc1cc(-c2ccccc2)sc1C(=O)O` [Compound 62, 5-PHENYL-3-(TOLUENE-2-SULFONYLAMINO)-THIOPHENE-2-CARBOXYLIC ACID], below 5 µM.
For `Cc1ccccc1S(=O)(=O)Nc1cc(-c2cccc([N+](=O)[O-])c2)sc1C(=O)O` [Compound 63, 5-(3-NITRO-PHENYL)-3-(TOLUENE-2-SULFONYLAMINO)-THIOPHENE-2-CARBOXYLIC ACID] the value was below 5 µM.
For `Cc1cccc(-c2cc(NS(=O)(=O)c3ccccc3C)c(C(=O)O)s2)c1` [Compound 64, 3-(TOLUENE-2-SULFONYLAMINO)-5-M-TOLYL-THIOPHENE-2-CARBOXYLIC ACID] the value was below 5 µM.
In the case of `Cc1ccccc1S(=O)(=O)Nc1cc(-c2cccc(Cl)c2)sc1C(=O)O` [Compound 65, 5-(3-CHLORO-PHENYL)-3-(TOLUENE-2-SULFONYLAMINO)-THIOPHENE-2-CARBOXYLIC ACID], the IC50 is below 5 µM.
For `Cc1ccccc1S(=O)(=O)Nc1cc(-c2ccc(F)cc2)sc1C(=O)O` [Compound 66, 5-(4-FLUORO-PHENYL)-3-(TOLUENE-2-SULFONYLAMINO)-THIOPHENE-2-CARBOXYLIC ACID] the value was below 5 µM; for `Cc1ccccc1S(=O)(=O)Nc1cc(-c2cccc(F)c2)sc1C(=O)O` [Compound 67, 5-(3-FLUORO-PHENYL)-3-(TOLUENE-2-SULFONYLAMINO)-THIOPHENE-2-CARBOXYLIC ACID], below 5 µM.
For `Cc1ccccc1S(=O)(=O)Nc1cc(-c2ccc(Cl)cc2)sc1C(=O)O` [Compound 68, 5-(4-CHLORO-PHENYL)-3-(TOLUENE-2-SULFONYLAMINO)-THIOPHENE-2-CARBOXYLIC ACID] the value was below 5 µM; for `Cc1ccccc1S(=O)(=O)Nc1cc(-c2cc(F)cc(F)c2)sc1C(=O)O` [Compound 69, 5-(3,5-DIFLUORO-PHENYL)-3-(TOLUENE-2-SULFONYLAMINO)-THIOPHENE-2-CARBOXYLIC ACID], below 5 µM.
For `Cc1ccccc1S(=O)(=O)Nc1cc(-c2ccc(F)c(F)c2)sc1C(=O)O` [Compound 70, 5-(3,4-DIFLUORO-PHENYL)-3-(TOLUENE-2-SULFONYLAMINO)-THIOPHENE-2-CARBOXYLIC ACID] the value was below 5 µM; for `C=Cc1cc(NS(=O)(=O)c2ccccc2C)c(C(=O)O)s1` [Compound 71, 3-(TOLUENE-2-SULFONYLAMINO)-5-VINYL-THIOPHENE-2-CARBOXYLIC ACID], 5 to 20 µM.
